Results reported in ChEMBL document CHEMBL4765450, “The components and activities analysis of a novel anticoagulant candidate dHG-5” (Eur J Med Chem, 2020).
Calls of active or inactive are those of the source. No cut-off for these calls is given here.

Assays:
[1] = system: Plasma; assay: Induction of platelet aggregation in human platelet rich plasma at plasma peak concentration of 10 times anti-thrombosis ED50 measured after 10 mins by light transmission aggregometry
[2] = molecular target: Prothrombin (Homo sapiens) (UniProt P00734); assay: Inhibition of factor 2a (unknown origin) at IC50 preincubated for 1 min followed by chromogenic substrate addition and measured for 2 mins; details: time 3.0 min
[3] = molecular target: T1, Coagulation factor VII (Homo sapiens) (UniProt P08709); assay: Inhibition of factor 7a (unknown origin) at IC50 using pefachrome factor VIIa as substrate preincubated for 1 min followed by chromogenic substrate addition and measured for 2 mins; details: time 3.0 min
T1 sequence (whole entry): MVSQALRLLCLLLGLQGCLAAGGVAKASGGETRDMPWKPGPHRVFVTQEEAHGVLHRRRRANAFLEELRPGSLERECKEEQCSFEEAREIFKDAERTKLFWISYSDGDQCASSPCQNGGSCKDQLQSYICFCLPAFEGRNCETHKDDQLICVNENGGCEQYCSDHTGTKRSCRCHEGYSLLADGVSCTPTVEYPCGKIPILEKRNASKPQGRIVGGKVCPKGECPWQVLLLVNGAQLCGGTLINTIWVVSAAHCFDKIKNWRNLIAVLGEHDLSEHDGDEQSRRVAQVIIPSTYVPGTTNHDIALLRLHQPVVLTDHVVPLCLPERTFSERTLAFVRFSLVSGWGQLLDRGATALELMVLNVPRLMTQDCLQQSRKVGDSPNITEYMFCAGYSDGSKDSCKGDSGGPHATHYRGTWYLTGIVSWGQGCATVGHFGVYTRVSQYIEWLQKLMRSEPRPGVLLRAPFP

[4] = molecular target: Coagulation factor X (Homo sapiens) (UniProt P00742); assay: Inhibition of factor 10a (unknown origin) at IC50 preincubated for 1 min followed by chromogenic substrate addition and measured for 2 mins; details: time 3.0 min
Chain of Coagulation factor X (Homo sapiens) (P00742 41-179 limits assumed): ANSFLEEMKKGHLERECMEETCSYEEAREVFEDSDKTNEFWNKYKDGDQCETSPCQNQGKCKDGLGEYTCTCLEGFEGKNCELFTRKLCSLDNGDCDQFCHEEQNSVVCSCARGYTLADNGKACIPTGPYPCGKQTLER
Chain of Coagulation factor X (Homo sapiens) (P00742 235-488 limits assumed): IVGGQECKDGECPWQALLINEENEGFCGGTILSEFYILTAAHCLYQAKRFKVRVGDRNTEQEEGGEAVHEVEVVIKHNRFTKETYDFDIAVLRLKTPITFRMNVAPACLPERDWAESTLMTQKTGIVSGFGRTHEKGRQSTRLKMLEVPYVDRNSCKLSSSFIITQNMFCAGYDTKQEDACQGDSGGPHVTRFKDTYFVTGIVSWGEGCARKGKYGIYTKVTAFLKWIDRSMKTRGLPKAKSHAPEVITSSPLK

[5] = molecular target: Coagulation factor XI (Homo sapiens) (UniProt P03951); assay: Inhibition of factor 11a (unknown origin) at IC50 using S-2366 as substrate preincubated for 1 min followed by chromogenic substrate addition and measured for 2 mins; details: time 3.0 min
Chain of Coagulation factor XI (Homo sapiens) (P03951 19-387 limits assumed): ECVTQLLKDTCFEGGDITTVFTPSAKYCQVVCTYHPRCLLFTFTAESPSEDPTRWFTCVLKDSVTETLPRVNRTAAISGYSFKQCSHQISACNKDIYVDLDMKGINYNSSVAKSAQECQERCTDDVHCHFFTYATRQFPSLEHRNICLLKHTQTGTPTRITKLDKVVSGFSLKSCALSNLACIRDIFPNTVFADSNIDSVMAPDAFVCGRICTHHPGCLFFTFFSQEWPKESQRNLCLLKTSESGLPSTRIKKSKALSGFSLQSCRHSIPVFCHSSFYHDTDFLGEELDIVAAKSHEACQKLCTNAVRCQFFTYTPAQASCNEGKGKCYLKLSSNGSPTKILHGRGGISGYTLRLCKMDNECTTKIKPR
Chain of Coagulation factor XI (Homo sapiens) (P03951 388-625 limits assumed): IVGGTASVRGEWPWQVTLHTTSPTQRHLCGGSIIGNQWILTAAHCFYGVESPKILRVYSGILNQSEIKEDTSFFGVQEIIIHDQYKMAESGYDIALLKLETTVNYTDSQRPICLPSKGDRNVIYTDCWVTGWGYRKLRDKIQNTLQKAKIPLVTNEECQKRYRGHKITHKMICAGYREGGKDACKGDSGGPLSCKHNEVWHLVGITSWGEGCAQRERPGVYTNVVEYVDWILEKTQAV

[6] = molecular target: T2, Coagulation factor XII (Homo sapiens) (UniProt P00748); assay: Inhibition of factor 12a (unknown origin) at IC50 using kallikrein chromogenic substrate preincubated for 1 min followed by chromogenic substrate addition and measured for 2 mins; details: time 3.0 min
T2 sequence (whole entry): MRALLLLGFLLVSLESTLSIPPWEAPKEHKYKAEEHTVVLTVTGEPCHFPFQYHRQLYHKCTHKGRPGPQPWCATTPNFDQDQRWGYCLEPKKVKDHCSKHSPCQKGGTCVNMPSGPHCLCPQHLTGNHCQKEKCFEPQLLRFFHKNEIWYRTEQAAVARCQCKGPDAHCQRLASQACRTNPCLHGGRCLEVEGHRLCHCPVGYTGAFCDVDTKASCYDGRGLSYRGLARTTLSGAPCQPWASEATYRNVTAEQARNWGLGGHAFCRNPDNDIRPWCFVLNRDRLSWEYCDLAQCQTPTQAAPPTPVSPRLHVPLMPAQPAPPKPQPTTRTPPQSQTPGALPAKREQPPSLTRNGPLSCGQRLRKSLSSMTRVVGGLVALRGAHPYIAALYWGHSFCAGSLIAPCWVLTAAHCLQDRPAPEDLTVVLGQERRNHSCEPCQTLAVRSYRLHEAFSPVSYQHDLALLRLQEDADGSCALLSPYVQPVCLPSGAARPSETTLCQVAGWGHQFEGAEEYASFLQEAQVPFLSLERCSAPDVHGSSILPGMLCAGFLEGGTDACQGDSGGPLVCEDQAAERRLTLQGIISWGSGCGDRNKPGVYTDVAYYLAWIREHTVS

[7] = molecular target: Prothrombin (Homo sapiens) (UniProt P00734); assay: Inhibition of factor 2a (unknown origin) at IC50 preincubated for 1 min followed by chromogenic substrate addition and measured for 2 mins in presence of AT-III; details: time 3.0 min
[8] = molecular target: T1, Coagulation factor VII (Homo sapiens); assay: Inhibition of factor 7a (unknown origin) at IC50 using pefachrome factor VIIa as substrate preincubated for 1 min followed by chromogenic substrate addition and measured for 2 mins in presence of AT-III; details: time 3.0 min
[9] = molecular target: Coagulation factor X (Homo sapiens) (UniProt P00742); assay: Inhibition of factor 10a (unknown origin) at IC50 preincubated for 1 min followed by chromogenic substrate addition and measured for 2 mins in presence of AT-III; details: time 3.0 min
[10] = molecular target: Coagulation factor XI (Homo sapiens) (UniProt P03951); assay: Inhibition of factor 11a (unknown origin) at IC50 using S-2366 as substrate preincubated for 1 min followed by chromogenic substrate addition and measured for 2 mins in presence of AT-III; details: time 3.0 min
[11] = molecular target: T2, Coagulation factor XII (Homo sapiens); assay: Inhibition of factor 12a (unknown origin) at IC50 using kallikrein chromogenic substrate preincubated for 1 min followed by chromogenic substrate addition and measured for 2 mins in presence of AT-III; details: time 3.0 min
[12] = molecular target: Prothrombin (Homo sapiens) (UniProt P00734); assay: Inhibition of factor 2a (unknown origin) at IC90 preincubated for 1 min followed by chromogenic substrate addition and measured for 2 mins in presence of AT-III; details: time 3.0 min
[13] = molecular target: Coagulation factor XI (Homo sapiens) (UniProt P03951); assay: Inhibition of factor 11a (unknown origin) at IC90 using S-2366 as substrate preincubated for 1 min followed by chromogenic substrate addition and measured for 2 mins in presence of AT-III; details: time 3.0 min
[14] = molecular target: Coagulation factor X (Homo sapiens) (UniProt P00742); assay: Inhibition of factor 10a (unknown origin) at IC90 preincubated for 1 min followed by chromogenic substrate addition and measured for 2 mins in presence of AT-III relative to control; details: time 3.0 min
[15] = system: Plasma; assay: Anticoagulation activity in AT-III-deficient human plasma preincubated for 2 mins followed by APTT reagent and measured after 3 mins by coagulometric method; assay type: functional, cell-free; details: time 5.0 min
[16] = system: Plasma; assay: Anticoagulation activity in HCII-deficient human plasma preincubated for 2 mins followed by APTT reagent and measured after 3 mins by coagulometric method; assay type: functional, cell-free; details: time 5.0 min
[17] = system: Rattus norvegicus; assay: Antithrombotic activity in thromboplastin and stasis-induced Sprague-Dawley rat deep venous thrombosis model assessed as reduction in venous thrombosis at 1.52 mg/kg, sc administered 1 hr prior to thromboplastin addition for 20 secs followed by establishment of stasis for 20 mins; assay type: functional; details: 1.339 h, time 80.33 min
[18] = system: Plasma; assay: Induction of platelet aggregation in rat wash platelet at plasma peak concentration of 10 times anti-thrombosis ED50 measured after 10 mins by light transmission aggregometry
[19] = system: Plasma; assay: Anticoagulation activity in human plasma assessed as drug level causing 20 times doubling of APTT preincubated for 2 mins followed by APTT reagent and measured after 3 mins by coagulometric method relative to dHG-5; assay type: functional; details: time 5 min
[20] = molecular target: T3, Coagulation factor IX/VIII (Homo sapiens) (UniProt P00740+P00451); assay: Inhibition of human citrated plasma iXase (factor 8a-factor 9a complex) preincubated for 2 mins followed by factor 10 addition and measured after 1 min by FXa chromogenic substrate SXa-11 based assay relative to dHG-5; assay type: protein-complex assay; details: time 3.0 min
[21] = molecular target: T4, Coagulation factor IX (Homo sapiens, UniProt P00740); assay: Inhibition of factor 9a (unknown origin) binding to immobilized biotinylated oHG-11 by biolayer interferometry relative to dHG-5
T4 sequence (P00740 47-191 limits assumed): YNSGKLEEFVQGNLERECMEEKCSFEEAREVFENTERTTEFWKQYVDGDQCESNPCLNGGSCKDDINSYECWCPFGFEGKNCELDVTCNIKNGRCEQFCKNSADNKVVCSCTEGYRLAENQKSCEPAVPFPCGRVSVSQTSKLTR
T4 sequence (P00740 227-461 limits assumed): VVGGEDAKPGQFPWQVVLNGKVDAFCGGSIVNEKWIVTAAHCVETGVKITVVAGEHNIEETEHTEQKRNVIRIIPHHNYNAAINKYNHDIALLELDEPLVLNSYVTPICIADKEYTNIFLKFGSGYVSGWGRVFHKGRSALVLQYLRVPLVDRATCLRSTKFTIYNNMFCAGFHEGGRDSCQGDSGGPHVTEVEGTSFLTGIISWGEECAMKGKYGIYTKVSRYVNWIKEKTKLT

[22] = system: Rattus norvegicus; assay: Antithrombotic activity in thromboplastin and stasis-induced Sprague-Dawley rat deep venous thrombosis model assessed as reduction in venous thrombosis at 1.52 mg/kg, sc administered 1 hr prior to thromboplastin addition for 20 secs followed by establishment of stasis for 20 mins relative to dHG-5; assay type: functional; details: time 80.33 min, 1.339 h
[23] = system: Plasma; assay: Anticoagulation activity in human plasma assessed as drug level causing 20 times doubling of APTT by measuring activity potency of oligosaccharides multiplied by the percentage of oligosaccharides in dHG-5 preincubated for 2 mins followed by APTT reagent and measured after 3 mins by coagulometric method relative to dHG-5; assay type: functional; details: time 5 min
[24] = molecular target: T3, Coagulation factor IX/VIII (Homo sapiens); assay: Inhibition of human citrated plasma iXase (factor 8a-factor 9a complex) assessed as activity potency of oligosaccharides multiplied by the percentage of oligosaccharides in dHG-5 preincubated for 2 mins followed by factor 10 addition and measured after 1 min by FXa chromogenic substrate SXa-11 based assay relative to dHG-5; assay type: protein-complex assay; details: time 3.0 min
[25] = molecular target: T4, Coagulation factor IX; assay: Inhibition of factor 9a (unknown origin) binding to immobilized biotinylated oHG-11 assessed as activity potency of oligosaccharides multiplied by the percentage of oligosaccharides in dHG-5 by biolayer interferometry relative to dHG-5
[26] = system: Rattus norvegicus; assay: Antithrombotic activity in thromboplastin and stasis-induced Sprague-Dawley rat deep venous thrombosis model assessed as reduction in venous thrombosis by measuring activity potency of oligosaccharides multiplied by the percentage of oligosaccharides in dHG-5 at 1.52 mg/kg, sc administered 1 hr prior to thromboplastin addition for 20 secs followed by establishment of stasis for 20 mins relative …; assay type: functional; details: time 80.33 min, 1.339 h

CC(=O)N[C@H]1[C@H](O[C@@H]([C@H](O[C@@H]2O[C@@H](C)[C@@H](OS(=O)(=O)[O-])[C@@H](OS(=O)(=O)O)[C@@H]2O)[C@@H](O)CO)[C@H](O)C(=O)[O-])O[C@H](COS(=O)(=O)[O-])[C@H](OS(=O)(=O)[O-])[C@@H]1O[C@@H]1O[C@H](C(=O)[O-])[C@@H](O[C@@H]2O[C@H](COS(=O)(=O)[O-])[C@H](OS(=O)(=O)[O-])[C@H](O[C@@H]3O[C@H](C(=O)[O-])[C@@H](O[C@@H]4O[C@H](COS(=O)(=O)[O-])[C@H](OS(=O)(=O)[O-])[C@H](O[C@@H]5O[C@H](C(=O)[O-])[C@@H](O[C@@H]6O[C@H](COS(=O)(=O)[O-])[C@H](OS(=O)(=O)[O-])[C@H](O[C@@H]7O[C@H](C(=O)[O-])[C@@H](O[C@@H]8O[C@H](COS(=O)(=O)[O-])[C@H](OS(=O)(=O)[O-])[C@H](O[C@@H]9O[C@H](C(=O)[O-])[C@@H](O[C@@H]%10O[C@H](COS(=O)(=O)[O-])[C@H](OS(=O)(=O)[O-])[C@H](O[C@@H]%11O[C@H](C(=O)[O-])[C@@H](O[C@@H]%12O[C@H](COS(=O)(=O)[O-])[C@H](OS(=O)(=O)[O-])[C@H](O[C@@H]%13O[C@H](C(=O)[O-])[C@@H](O[C@@H]%14O[C@H](COS(=O)(=O)[O-])[C@H](OS(=O)(=O)[O-])[C@H](O[C@@H]%15O[C@H](C(=O)[O-])[C@@H](O[C@@H]%16O[C@H](COS(=O)(=O)[O-])[C@H](OS(=O)(=O)[O-])[C@H](O[C@@H]%17OC(C(=O)O)=C[C@H](O[C@@H]%18O[C@@H](C)[C@@H](OS(=O)(=O)[O-])[C@@H](OS(=O)(=O)O)[C@@H]%18O)[C@H]%17O)[C@H]%16NC(C)=O)[C@H](O[C@@H]%16O[C@@H](C)[C@@H](OS(=O)(=O)[O-])[C@@H](OS(=O)(=O)O)[C@@H]%16O)[C@H]%15O)[C@H]%14NC(C)=O)[C@H](O[C@@H]%14O[C@@H](C)[C@@H](OS(=O)(=O)[O-])[C@@H](OS(=O)(=O)O)[C@@H]%14O)[C@H]%13O)[C@H]%12NC(C)=O)[C@H](O[C@@H]%12O[C@@H](C)[C@@H](OS(=O)(=O)[O-])[C@@H](OS(=O)(=O)O)[C@@H]%12O)[C@H]%11O)[C@H]%10NC(C)=O)[C@H](O[C@@H]%10O[C@@H](C)[C@@H](OS(=O)(=O)[O-])[C@@H](OS(=O)(=O)O)[C@@H]%10O)[C@H]9O)[C@H]8NC(C)=O)[C@H](O[C@@H]8O[C@@H](C)[C@@H](OS(=O)(=O)[O-])[C@@H](OS(=O)(=O)O)[C@@H]8O)[C@H]7O)[C@H]6NC(C)=O)[C@H](O[C@@H]6O[C@@H](C)[C@@H](OS(=O)(=O)[O-])[C@@H](OS(=O)(=O)O)[C@@H]6O)[C@H]5O)[C@H]4NC(C)=O)[C@H](O[C@@H]4O[C@@H](C)[C@@H](OS(=O)(=O)[O-])[C@@H](OS(=O)(=O)O)[C@@H]4O)[C@H]3O)[C@H]2NC(C)=O)[C@H](O[C@@H]2O[C@@H](C)[C@@H](OS(=O)(=O)[O-])[C@@H](OS(=O)(=O)O)[C@@H]2O)[C@H]1O.[Na+].[Na+].[Na+].[Na+].[Na+].[Na+].[Na+].[Na+].[Na+].[Na+].[Na+].[Na+].[Na+].[Na+].[Na+].[Na+].[Na+].[Na+].[Na+].[Na+].[Na+].[Na+].[Na+].[Na+].[Na+].[Na+].[Na+].[Na+].[Na+].[Na+].[Na+].[Na+].[Na+].[Na+].[Na+].[Na+].[Na+]
Activity [1]: Not Active | inhibition [2]: inactive | inhibition (active/not active) [3]: inactive | inhibition [4]: inactive | inhibition [5]: inactive | inhibition [6]: inactive | inhibition [7]: inactive | inhibition [8]: inactive | inhibition [9]: inactive | inhibition [10]: inactive | inhibition [11]: inactive | inhibition [12]: Active | inhibition [13]: Active | inhibition [14]: inactive | Activity [15]: Active | Activity [16]: Active | inhibition in vivo at 1.52 mg/kg [17]: 36.4% | Activity [18]: Not Active | Ratio [19]: 426.19 U | Ratio [20]: 478 U | Ratio [21]: 151 U | Ratio [22]: 233.18 U | Ratio [23]: 12.57 U | Ratio [24]: 14.1 U | Ratio [25]: 4.46 U | Ratio [26]: 7 U
